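Interpolation was linear, between the two tested concentrations surrounding the appropriate level; five concentrations were tested over 48 hours in 96-well plates. GI50 = concentration required for 50% inhibition of growth.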 Activity calls are given as the source filed them. No stated cut-off is given here; in the data, active = GI50 up to about 1.1 µM and inactive = higher.
What was measured:
Experiment in all cases: NCI tumour cell line growth inhibition, 48 h
786-0 = system: 786-0
A498 = system: A498
A549 = system: A549
ACHN = system: ACHN
BT-549 = system: BT-549
CAKI-1 = system: CAKI-1
CCRF-CEM = system: CCRF-CEM
COLO 205 = system: COLO 205
DU-145 = system: DU-145
EKVX = system: EKVX
HCC 2998 = system: HCC 2998
HCT-116 = system: HCT-116
HCT-15 = system: HCT-15
HL-60 = system: HL-60
HOP-62 = system: HOP-62
HOP-92 = system: HOP-92
HT-29 = system: HT-29
Hs-578T = system: Hs-578T
IGROV-1 = system: IGROV-1
K562 = system: K562
KM12 = system: KM12
LOX IMVI = system: LOX IMVI
M14 = system: M14
MCF7 = system: MCF7
MDA-MB-231 = system: MDA-MB-231
MDA-MB-435 = system: MDA-MB-435
MDA-N = system: MDA-N
MOLT-4 = system: MOLT-4
Malme-3M = system: Malme-3M
NCI-H226 = system: NCI-H226
NCI-H23 = system: NCI-H23
NCI-H460 = system: NCI-H460
NCI-H522 = system: NCI-H522
NCI/ADR-RES = system: NCI/ADR-RES
OVCAR-3 = system: OVCAR-3
OVCAR-4 = system: OVCAR-4
OVCAR-5 = system: OVCAR-5
OVCAR-8 = system: OVCAR-8
PC-3 = system: PC-3
RPMI-8226 = system: RPMI-8226
RXF 393 = system: RXF 393
SF-268 = system: SF-268
SF-295 = system: SF-295
SF-539 = system: SF-539
SK-MEL-28 = system: SK-MEL-28
SK-MEL-2 = system: SK-MEL-2
SK-MEL-5 = system: SK-MEL-5
SK-OV-3 = system: SK-OV-3
SN12C = system: SN12C
SNB-19 = system: SNB-19
SNB-75 = system: SNB-75
SR = system: SR
SW-620 = system: SW-620
T47D = system: T47D
TK-10 = system: TK-10
U-251 = system: U-251
UACC-257 = system: UACC-257
UACC-62 = system: UACC-62
UO-31 = system: UO-31

Structure (SMILES): CN(C)c1ccc(/C=C/C(=O)c2cc(C(C)(C)C)c(O)c(C(C)(C)C)c2)cc1
- GI50 (786-0): 1.3 µM (inactive)
- GI50 (A498): 1.91 µM (inactive)
- GI50 (A549): 2.32 µM (inactive)
- GI50 (ACHN): 1.73 µM (inactive)
- GI50 (BT-549): 3.64 µM (inactive)
- GI50 (CAKI-1): 1.14 µM (inactive)
- GI50 (CCRF-CEM): 1.01 µM (active)
- GI50 (COLO 205): 0.348 µM (active)
- GI50 (DU-145): 2 µM (inactive)
- GI50 (EKVX): 0.583 µM (active)
- GI50 (HCC 2998): 1.64 µM (inactive)
- GI50 (HCT-116): 1.05 µM (active)
- GI50 (HCT-15): 1.15 µM
- GI50 (HL-60): 2.29 µM (inactive)
- GI50 (HOP-62): 2.54 µM (inactive)
- GI50 (HOP-92): > 100 µM (inactive)
- GI50 (HT-29): 1.03 µM (active)
- GI50 (Hs-578T): 2.72 µM (inactive)
- GI50 (IGROV-1): 4.15 µM (inactive)
- GI50 (K562): 0.979 µM (active)
- GI50 (KM12): 0.641 µM (active)
- GI50 (LOX IMVI): 2.06 µM (inactive)
- GI50 (M14): 1.15 µM (inactive)
- GI50 (MCF7): 0.469 µM (active)
- GI50 (MDA-MB-231): 2.44 µM (inactive)
- GI50 (MDA-MB-435): 0.258 µM (active)
- GI50 (MDA-N): 0.249 µM (active)
- GI50 (MOLT-4): 3.85 µM (inactive)
- GI50 (Malme-3M): > 100 µM (inactive)
- GI50 (NCI-H226): 1.85 µM (inactive)
- GI50 (NCI-H23): 2.07 µM (inactive)
- GI50 (NCI-H460): 0.82 µM (active)
- GI50 (NCI-H522): 0.482 µM (active)
- GI50 (NCI/ADR-RES): 0.796 µM (active)
- GI50 (OVCAR-3): 0.443 µM (active)
- GI50 (OVCAR-4): 1.98 µM (inactive)
- GI50 (OVCAR-5): 2.99 µM (inactive)
- GI50 (OVCAR-8): 2.93 µM (inactive)
- GI50 (PC-3): 1.22 µM (inactive)
- GI50 (RPMI-8226): 1.55 µM (inactive)
- GI50 (RXF 393): 0.204 µM (active)
- GI50 (SF-268): 2.66 µM (inactive)
- GI50 (SF-295): 0.43 µM (active)
- GI50 (SF-539): 0.625 µM (active)
- GI50 (SK-MEL-28): > 60 µM (inactive)
- GI50 (SK-MEL-2): 1.08 µM (active)
- GI50 (SK-MEL-5): 0.774 µM (active)
- GI50 (SK-OV-3): 1.74 µM (inactive)
- GI50 (SN12C): 3.13 µM (inactive)
- GI50 (SNB-19): 3.73 µM (inactive)
- GI50 (SNB-75): 0.579 µM (active)
- GI50 (SR): 0.546 µM (active)
- GI50 (SW-620): 0.986 µM (active)
- GI50 (T47D): 4.06 µM (inactive)
- GI50 (TK-10): 1.23 µM (inactive)
- GI50 (U-251): 0.946 µM (active)
- GI50 (UACC-257): 0.321 µM (active)
- GI50 (UACC-62): 0.637 µM (active)
- GI50 (UO-31): 1.61 µM (inactive)
